Data: publication PMC6274474, “Synthesis and Cytotoxic Activity on Human Cancer Cells of Novel Isoquinolinequinone–Amino Acid Derivatives” (Molecules, 2016)
Read-outs that look alike come from different tables or passages of the source.

How the values were obtained:
[1] = tested on: AG 1523 normal human fibroblasts; assay: MTT cytotoxicity assay, 48 h, normal human fibroblasts; type: cell-based; settings: AG1523, healthy non-tumor fibroblasts, three experiments, read-out: IC50 ± SEM AG 1523
Procedure: (§1) Cytotoxicity assay (Table 5). […] The cytotoxic effect of compounds on cell lines was assessed using the MTT assay as reported previously. Briefly, 10,000 cells/well were plated for 24 h in 96-well plates and, after reaching confluence, the cells were incubated for 48 h with DMSO or in the presence of compounds. Cells were washed twice with warm phosphate-buffered saline (PBS) and further incubated for 2 h with MTT (0.5 mg/mL). The blue formazan crystals were then solubilized by adding 100 μL DMSO/well and optical density of colored solutions was read at 550 nm. Results are expressed as % of MTT reduction compared to untreated control conditions. The calculation of IC50 values was performed by using GraphPad Prism software (San Diego, CA, USA).

[2] = tested on: T24, DU-145 and MCF-7 human cancer cell lines; assay: MTT cytotoxicity, 48 h, panel summary (range/selective index) over T24, DU-145, MCF-7 vs AG 1523; type: cell-based
Procedure: as §1

[3] = tested on: T24 (bladder) human cancer cells; assay: MTT cytotoxicity assay, 48 h, bladder cancer cells; type: cell-based; settings: three experiments, read-out: IC50 ± SEM T24
Procedure: as §1

[4] = tested on: DU-145 (prostate) human cancer cells; assay: MTT cytotoxicity assay, 48 h, prostate cancer cells; type: cell-based; settings: three experiments, read-out: IC50 ± SEM DU-145
Procedure: as §1

[5] = tested on: SK-MES-1 human lung cancer cells; assay: MTT cytotoxicity assay, 72 h, lung cancer cells; type: cell-based; settings: 72 h exposure, six determinations, read-out: IC50 ± SEM SK-MES-1
Procedure: (§2) The series of isoquinolinequinone amino ester conjugates (Table 1) and the bromine derivatives (Table 2) were evaluated for their in vitro cytotoxic activities against normal human lung fibroblast (MRC-5) and three human cancer cells lines: human gastric adenocarcinoma (AGS), human lung cancer (SK-MES-1), and human bladder carcinoma (J82), in 72 h drug exposure assays. The cytotoxic activities of the new compounds were measured using conventional microculture tetrazolium reduction assays. The cytotoxic activities of each of the quinones are expressed in terms of IC50.
(§3) Cytotoxicity assay (Table 3 and Table 4). […] MRC-5, SK-MES-1, and J82 cells were grown in Eagle’s minimal essential medium (EMEM) containing 2 mM L-glutamine, 1 mM sodium pyruvate and 1.5 g/L sodium hydrogen carbonate. AGS cells were grown in Ham F-12 supplemented with 2 mM L-glutamine and 1.5 g/L sodium hydrogen carbonate. Finally, HL-60 cells were grown in RPMI medium. […] For the cytotoxicity experiments, cells were seeded into 96-well plates at a density of 50,000 cells/mL. After reaching confluence, cells were incubated for three days with compounds at varied concentrations ranging from 0 up to 100 μM while untreated cells (medium containing 1% DMSO) were used as controls. Cytotoxicity was assessed using the MTT (3-(4,5-dimethylthiazol-2-yl)-2,5-diphenyltetrazolium bromide) reduction assay. MTT was used at 1 mg/mL and the blue formazan crystals, formed during MTT reduction, were dissolved adding 100 μL of ethanol (acidified with HCl). The absorbance was measured at 550 nm using a Universal Microplate Reader (ELX 800, Bio-Tek Instruments Inc., Winooski, VT, USA). Values were the means of six replicates for each concentration and transformed to percentage of controls. The IC50 value was graphically obtained from the dose–response curves by adjusting them to a sigmoidal model (a + (b − a)/1 + 10(x − c)), where c = log IC50.

[6] = tested on: AGS, SK-MES-1 and J82 human cancer cell lines; assay: MTT cytotoxicity, 72 h, panel summary (mean/range/selective index) over AGS, SK-MES-1, J82 vs MRC-5; type: cell-based; settings: for MSI: Mean Selective Index = IC50 values for fibroblasts/IC50 values tumor cells: MRC-5 vs AGS; for MSI: Mean Selective Index = IC50 values for fibroblasts/IC50 values tumor cells / IC50: SK-MES-1, J82; for IC50: Homo sapiens
Procedure: as §2, §3

[7] = tested on: MRC-5 normal human lung fibroblasts; assay: MTT cytotoxicity assay, 72 h, normal human lung fibroblasts; type: cell-based; settings: for IC50: MRC5, normal human lung fibroblasts, MTT, 72 h exposure, six determinations, read-out: IC50 ± SEM MRC-5
Procedure: as §2, §3

[8] = tested on: MCF-7 (breast) human cancer cells; assay: MTT cytotoxicity assay, 48 h, breast cancer cells; type: cell-based; settings: MCF7, three experiments, read-out: IC50 ± SEM MCF-7
Procedure: as §1

[9] = tested on: J82 human bladder carcinoma cells; assay: MTT cytotoxicity assay, 72 h, bladder carcinoma cells; type: cell-based; settings: 72 h exposure, six determinations, read-out: IC50 ± SEM J82
Procedure: as §2, §3

[10] = tested on: AGS human gastric adenocarcinoma cells; assay: MTT cytotoxicity assay, 72 h, gastric adenocarcinoma cells; type: cell-based; settings: 72 h exposure, six determinations, read-out: IC50 ± SEM AGS
Procedure: as §2, §3

[11] = SK-MES-1, 72 h, range over AGS, 72 h MTT, read-out: IC50 values range over the cancer cell lines
[12] = SK-MES-1, mean over AGS, read-out: mean IC50 on cancer cells

Structure (SMILES)	IC50 [1] [µM]	SI ([2]; AG 1523 fibroblasts vs T24, DU-145, MCF-7)	IC50 ([2]; Homo sapiens, range over T24, DU-145, MCF-7, 48 h MTT, read-out: IC50 range in cancer cells) [µM]	IC50 [3] [µM]	IC50 [4] [µM]	IC50 [5] [µM]	MSI on lung and bladder cancer cells ([6]; MRC-5 vs SK-MES-1 and J82 only)	IC50 [7] [µM]	SI (normal fibroblasts) ([7]; as printed for normal fibroblasts)	IC50 [8] [µM]	IC50 [9] [µM]	melting point [°C]	IC50 [10] [µM]	MSI: Mean Selective Index = IC50 values for fibroblasts/IC50 values tumor cells [6]	IC50 [6, 11] [µM]	IC50 [6, 12] [µM]
COC(=O)c1c(C)ncc2c1C(=O)C(Br)=C(NC(CC(C)C)C(=O)OC)C2=O (stereo not drawn) [Compound 14]	1.57 ± 0.2	2.62	0.5 to 0.67	0.67 ± 0.06	0.64 ± 0.06	0.92 ± 0.04	> 45	> 100	> 100	0.5 ± 0.05	2.21 ± 0.17	104.3 to 106.2	> 100	–	–	–
COC(=O)c1c(C)ncc2c1C(=O)C(Br)=C(NC(C)C(=O)OC)C2=O (stereo not drawn) [Compound 12, Methyl 6-bromo-7-(1-methoxy-1-oxopropan-2-ylamino)-3-methyl-5,8-dioxo-5,8-dihydroisoquinoline-4-carboxylate]	–	–	–	–	–	1.96 ± 0.11	–	2.86 ± 0.17	–	–	3.76 ± 0.26	120.5 to 122	2.07 ± 0.11	1.10	–	–
COC(=O)c1c(C)ncc2c1C(=O)C(N[C@H](Cc1ccccc1)C(=O)OC)=CC2=O [Compound 10b, Methyl 6- and 7-(1-methoxy-1-oxo-3-phenylpropan-2-ylamino)-3-methyl-5,8-dioxo-5,8-dihydroisoquinoline-4-carboxylate]	–	–	–	–	–	1.2 ± 0.05	–	1.78 ± 0.12	–	–	3.03 ± 0.17	71.5 to 73	1.98 ± 0.11	0.82	0.58 to 3.18	–
COC(=O)c1c(C)ncc2c1C(=O)C=C(N[C@@H](Cc1c[nH]c3ccccc13)C(=O)OC)C2=O [Compound 8a, Methyl 6- and 7-(3-(1H-indol-3-yl)-1-methoxy-1-oxopropan-2-ylamino)-3-methyl-5,8-dioxo-5,8-dihydroisoquinoline-4-carboxylate]	–	–	–	–	–	3.63 ± 0.18	–	6.62 ± 0.46	–	–	7.56 ± 0.52	–	2.54 ± 0.18	1.45	–	–
COC(=O)c1c(C)ncc2c1C(=O)C=C(N[C@@H](CC(C)C)C(=O)OC)C2=O [Compound 4a]	–	–	–	–	–	4.56 ± 0.31	–	5.7 ± 0.29	–	–	7.65 ± 0.51	–	2.97 ± 0.15	1.13	–	–
COC(=O)c1c(C)ncc2c1C(=O)C=C(N[C@H](C(=O)OC)C(C)C)C2=O [Compound 3a, Methyl 6- and 7-(1-methoxy-3-methyl-1-oxobutan-2-ylamino)-3-methyl-5,8-dioxo-5,8-dihydro-isoquinoline-4-carboxylate]	–	–	–	–	–	4.62 ± 0.28	–	4.94 ± 0.25	–	–	7.49 ± 0.44	–	1.94 ± 0.08	1.10	–	–
COC(=O)c1c(C)ncc2c1C(=O)C=C(N[C@@H](CCSC)C(=O)OC)C2=O [Compound 5a]	–	–	–	–	–	2.93 ± 0.11	–	5.22 ± 0.31	–	–	6 ± 0.32	–	2.54 ± 0.21	1.42	–	–
COC(=O)c1c(C)ncc2c1C(=O)C(Br)=C(NC(Cc1ccccc1)C(=O)OC)C2=O (stereo not drawn) [Compound 15]	–	–	–	–	–	2.13 ± 0.12	–	4.48 ± 0.27	–	–	4.61 ± 0.36	125.2 to 127.5	2.08 ± 0.13	1.52	–	–
COC(=O)c1c(C)ncc2c1C(=O)C=C(N[C@@H](C)C(=O)OC)C2=O [Compound 2a, Methyl 6- and 7-(1-methoxy-1-oxopropan-2-ylamino)-3-methyl-5,8-dioxo-5,8-dihydroisoquinoline-4-carboxylate]	–	–	–	–	–	2.65 ± 0.19	–	9.04 ± 0.69	–	–	6.25 ± 0.44	–	2.25 ± 0.15	–	–	< 4
COC(=O)c1c(C)ncc2c1C(=O)C(N[C@@H](CC(C)C)C(=O)OC)=CC2=O [Compound 4b, Methyl 6- and 7-(1-methoxy-4-methyl-1-oxopentan-2-ylamino)-3-methyl-5,8-dioxo-5,8-dihydroisoquinoline-4-carboxylate]	–	–	–	–	–	2.22 ± 0.12	–	1.77 ± 0.14	–	–	2.35 ± 0.09	58.5 to 60.5	1.59 ± 0.07	0.86	0.58 to 3.18	–
COC(=O)c1c(C)ncc2c1C(=O)C(N[C@@H](Cc1ccc(O)cc1)C(=O)OC)=CC2=O [Compound 7b]	–	–	–	–	–	2.57 ± 0.12	–	3.74 ± 0.26	–	–	7.11 ± 0.55	76.5 to 78.5	1.53 ± 0.06	1.00	–	–
COC(=O)c1c(C)ncc2c1C(=O)C=C(N[C@@H](Cc1ccccc1)C(=O)OC)C2=O [Compound 6a, Methyl 6- and 7-(1-methoxy-1-oxo-3-phenylpropan-2-ylamino)-3-methyl-5,8-dioxo-5,8-dihydroisoquinoline-4-carboxylate]	–	–	–	–	–	2.5 ± 0.15	–	6.73 ± 0.34	–	–	4.68 ± 0.23	–	1.85 ± 0.13	–	–	< 4
COC(=O)c1c(C)ncc2c1C(=O)C(NC(C(=O)OC)C(C)C)=C(Br)C2=O (stereo not drawn) [Compound 13b]	–	–	–	–	–	3.9 ± 0.31	–	2.11 ± 0.11	–	–	8.76 ± 0.61	105 to 106.6	2.7 ± 0.14	0.41	–	–
COC(=O)c1c(C)ncc2c1C(=O)C(Br)=C(NC(C(=O)OC)C(C)C)C2=O (stereo not drawn) [Compound 13a]	–	–	–	–	–	2.28 ± 0.09	–	2.98 ± 0.21	–	–	4.01 ± 0.19	105.2 to 107	1.92 ± 0.13	1.15	–	–
